The text below walks through data of patent US20240415756A1, “PEPTIDES AND COMPOSITIONS FOR USE IN COSMETICS” (LIPOTRUE, S.L., priority 2022, published 2024).

Marks after values point to notes of the source that are not given here. Ends that are not written are not given here.

The subject of test [1] is voltage-gated sodium channels. The test can be described thus: QPatch48 HT electrophysiology of sodium channels in SHSY-5Y cells. Format: cell-based, human. On the procedure: Using SHSY-5Y cells, electrophysiology was performed to measure ion channel activity using the QPatch48 HT (Sophion, Denmark). The samples tested were: • Negative control: 0.05% (v/v) Bovine Serum Albumin • Positive control: Tetradotoxin (TTX) at a concentration of 3 nM, 10 nM and 30 nM. • SEQ ID NO: 2—NH2 at a concentration of 0.005 mg/mL, 0.01 mg/ml and 0.05 mg/mL. • SEQ ID NO: 3—NH2 at a concentration of 0.005 mg/mL, 0.01 mg/ml and 0.05 mg/mL. • SEQ ID NO: 4—NH2 at a concentration of 0.005 mg/mL, 0.01 mg/ml and 0.05 mg/mL. • SEQ ID NO: 5—NH2 at a concentration of 0.005 mg/ml, 0.01 mg/mL and 0.05 mg/mL. • SEQ ID NO: 6—NH2 at a concentration of 0.005 mg/mL, 0.01 mg/ml and 0.05 mg/mL.
The percentage inhibition for each test dose application period was calculated as a reduction in mean cursor value (peak current) relative to the cursor value measured at the end of the vehicle control (pre-drug) and normalized to the maximum inhibition recorded with the supramaximal addition of TTX.
For orientation: In patch-clamp work, channel activity is measured electrically.

In test [2] the test system is muscle contraction-related genes. The test can be described thus: RT-qPCR expression of muscle contraction-related genes in myocytes. The note with it: 0.01 or 0.005 mg/mL, 24 h. The class given is cell-based, human. As for the experimental part:
A stock solution of the peptide was prepared in milli-Q water at 25 mg/mL. This stock was further diluted in the corresponding supplemented medium to obtain the final working concentrations of 0.01 and 0.005 mg/mL. Untreated cells were used as negative control samples.
The relevant genes for which the expression was measured were: SCN1B (Sodium Voltage-Gated Channel Beta Subunit 1), SCN4A (Sodium Voltage-Gated Channel Alpha Subunit 4), SCN3A (Sodium Voltage-Gated Channel Alpha Subunit 3), CALM3 (Calmodulin 3) and RAPSN (Receptor Associated Protein of the Synapse). The primers used for each of the genes were commercially available TaqMan Gene Expression Assay probes. The experiment was performed in vitro in myocytes, two concentrations of the peptide were tested (0.01 mg/ml and 0.005 mg/mL) at 24 h.
Briefly, human skeletal muscle myoblasts were seeded in 12-well plates at a density of 1×10^5 cells/well and maintained at standard culture conditions (SKM-M medium supplemented with 1% Antibiotic/Antimycotic; 37° C., 95% Relative Humidity, 5% CO2) for 48-72 hours until the plated myoblasts reached 80-90% confluence. […]
The obtained data were analyzed using the ΔΔCt method, which provides the target gene expression values as fold changes in the treated sample compared with an untreated basal sample. […]
(In general: Quantitative PCR measures a nucleic acid by following its amplification.)

The test system of test [3] is HDFa cells. The test can be described thus: Elastin synthesis in HDFa cells (Fastin Elastin Assay Kit). Format: cell-based, human. The note with it: 0.01 and 0.015 mg/ml, 48 hours, vs untreated samples. As for the experimental part: A stock solution of the peptide was prepared in water at 25 mg/mL. This stock was further diluted to obtain the final working concentrations of 0.005, 0.01 or 0.015 mg/mL in complete medium (Medium 106 supplemented with 2% LSGS). Untreated cells were used as basal condition.
For this study, HDFa cells were seeded in a 12-well plate at a density of 120,000 cells/well and maintained at standard culture conditions (Medium 106+2% LSGS; 37° C., 95% Relative Humidity, 5% CO2) for 24 hours. Then, fibroblasts were treated for 48 hours with 0.005, 0.01 or 0.015 mg/mL of the peptide mentioned above. After treatment, cells were harvested for elastin quantification with the Fastin Elastin Assay Kit, according to manufacturer instructions. Each condition was performed at least in triplicate (n=3) in three independent experiments (N=3).

In test [4] the test system is HDFa cells. The test can be described thus: Procollagen I alpha 1 release from HDFa cells (ELISA). Format: cell-based, human. As to conditions: 48 h. As for the experimental part:
A stock solution of the peptide was prepared in water at 25 mg/mL. This stock was further diluted to obtain the final working concentrations of 0.01, 0.015 or 0.05 mg/mL in complete medium (Medium 106 supplemented with 2% LSGS). Untreated cells were used as basal condition.
For this study, HDFa cells were seeded in a 24-well plate at a density of 100,000 cells/well and maintained at standard culture conditions (Medium 106 supplemented with 2% LSGS; 37° C., 95% Relative Humidity, 5% CO2) for 24 hours.
After 24 hours, cells were treated for 48 h with the peptide of the present invention mentioned above (0.01, 0.015 and 0.05 mg/mL). After treatments, supernatants were collected and centrifuged in order to eliminate cell debris and were kept at −80° C. until they were used for procollagen I alpha 1 quantification with a human procollagen I alpha 1 DuoSet ELISA kit according to manufacturer instructions. Each condition was performed at least in triplicate (n=3) in three independent experiments (N=3).
On the technique in general: In an ELISA, binding on a coated surface is turned into a signal by an enzyme label.

Test [5] deals with Human Fibroblast (SF-TY JCRB). Description: Hyaluronic acid synthesis in human skin fibroblasts (ELISA). The class given is cell-based. As to conditions: 48 hours, first experimental session; for % HA content: negative control = 100. On the procedure:
In this case the objective of this experiment was to evaluate in vitro the capability of the peptides of the present invention to increase Hyaluronic Acid (HA) synthesis or production in human skin fibroblasts. This evaluation was carried out by determination of HA amount after cell treatment with the peptide (at the different concentrations noted below), for 48 hours.
The experimental groups were: • Untreated cell cultures (negative control). • Cells treated with the peptide of the present invention (at 0.005 mg/mL, 0.01 mg/ml or 0.05 mg/mL).
Treatment was performed for 48 hours. Treatments were performed in triplicate and in two different experimental sessions.
The experimental model used in this study were Human Fibroblast (SF-TY JCRB) cultivated in MEM with fetal bovine serum 10% and 1% antibiotics at 37° C., 5% CO2.
Cells were seeded in 96-well plate at 1×10^4 cells/well and maintained for 24 h at standard culture conditions (37° C., 95% Relative Humidity, 5% CO2) before the treatment was applied.
At the end of the experimental period, the determination of Hyaluronic synthesis was carried out by means of ELISA method. Commercial kits were used for this purpose. The test kit employed a two-site sandwich ELISA to quantitate HA in samples. Briefly, an antibody specific for HA was pre-coated onto a microplate; Standards and samples were pipetted into the wells and any HA present got bound by the immobilized antibody; after removing any unbound substances, a biotin-conjugated antibody specific for HA was added to the wells; after washing, Streptavidin conjugated Horseradish Peroxidase (HRP) was added to the wells; following a wash to remove any unbound avidin-enzyme reagent, a substrate solution was added to the wells and color developed in proportion to the amount of HA bound in the initial step. The color development was stopped, and the intensity of the color was measured. A calibration curve of known concentrations of standard hyaluronic acid was used to perform the determination of the tested samples.
The results are expressed as % of HA content in cell culture medium and cell lysate, which is calculated by stablishing the content of HA in the negative control as 100% and making the appropriate comparison with the rest of the samples.

For test [6], the system named is ECM-related genes. The test can be described thus: RT-qPCR expression of ECM-related genes in HDFa cells. Format: cell-based, human. As for the experimental part:
A stock solution of the peptide was prepared in milli-Q water at 25 mg/mL. This stock was further diluted in the corresponding supplemented medium to obtain the final working concentrations of 0.05, 0.01 and 0.005 mg/mL. Untreated cells were used as negative control samples.
The relevant genes for which the expression was measured were: MMP1 (matrix metallopeptidase 1), HYAL1 (hyaluronidase 1), TIMP2 (TIMP metallopeptidase inhibitor 2), HAS1 (hyaluronan synthase 1), FBLN5 (fibulin 5), LOXL1 (lysyl oxidase like 1), COL4A1 (collagen type IV alpha 1 chain), COL3A1 (collagen type III alpha 1 chain) and COL7A1 (collagen type VII alpha 1 chain). The primers used for each of the genes were commercially available TaqMan Gene Expression Assay probes.
Briefly, HDFa cells were seeded in 12-well plates at a density of 1.5×10^5 cells/well and maintained at standard culture conditions (106 Medium supplemented with 1% LSGS; 37° C., 95% Relative Humidity, 5% CO2) for 24 hours. Then, cells were treated with the above-mentioned peptide at 0.005, 0.01 or 0.05 mg/mL for additional 6 or 24 hours.
Cells were finally lysed, and RNA extraction was performed using Qiagen RNeasy Mini kit following manufacturer's instructions. Purified RNAs were used to generate the corresponding cDNAs by reverse transcription which served as templates for amplification. RT-qPCR was performed with the panel of TaqMan assay probes specified above and 2x gene expression Master Mix using StepOne plus Real-Time PCR instrument. Amplification included 40 cycles of: 15 seconds at 95° C. (denaturation) and 1 minute at 60° C. (Annealing and extension).
The obtained data were analyzed using the ΔΔCt method, which provides the target gene expression values as fold changes in the treated sample compared with an untreated basal sample. Both samples were normalized with the relative expression of a housekeeping gene GAPDH (Glyceraldehyde 3-phosphate dehydrogenase).
The steps for analysis included: • 1. Calculate the average Ct for each condition • 2. Calculate the ΔCT test sample and the ΔCT calibrator sample • 3. Calculate the ΔΔCT: ΔΔCT=ΔCT test sample−ΔCT calibrator sample • 4. Obtain ratio by 2^−ΔΔCT

Test [7] deals with T1, human NaV1.3 (Homo sapiens, UniProt Q9NY46).
T1 construct: expressed in transfected cells; host or cells: Chinese Hamster Ovary (CHO) cells, stably transfected
Description: QPatch48 HT electrophysiology of NaV1.3 stably transfected into CHO cells. Format: cell-based. As to conditions: 10 μM peptide, triplicate, vs separate negative control. On the procedure: Using human NaV1.3 stably transfected into Chinese Hamster Ovary (CHO) cells, electrophysiology was performed to measure ion channel activity using the QPatch48 HT (Sophion, Denmark). Experiments were performed in triplicate and using a concentration of peptide of 10 μM. A separate negative control was performed for each of the peptides. As positive control Amitriptyline was used.

Where [8] appears, read: 24 h, 0.05 mg/ml of the peptide.

T1 sequence (Q9NY46 whole entry): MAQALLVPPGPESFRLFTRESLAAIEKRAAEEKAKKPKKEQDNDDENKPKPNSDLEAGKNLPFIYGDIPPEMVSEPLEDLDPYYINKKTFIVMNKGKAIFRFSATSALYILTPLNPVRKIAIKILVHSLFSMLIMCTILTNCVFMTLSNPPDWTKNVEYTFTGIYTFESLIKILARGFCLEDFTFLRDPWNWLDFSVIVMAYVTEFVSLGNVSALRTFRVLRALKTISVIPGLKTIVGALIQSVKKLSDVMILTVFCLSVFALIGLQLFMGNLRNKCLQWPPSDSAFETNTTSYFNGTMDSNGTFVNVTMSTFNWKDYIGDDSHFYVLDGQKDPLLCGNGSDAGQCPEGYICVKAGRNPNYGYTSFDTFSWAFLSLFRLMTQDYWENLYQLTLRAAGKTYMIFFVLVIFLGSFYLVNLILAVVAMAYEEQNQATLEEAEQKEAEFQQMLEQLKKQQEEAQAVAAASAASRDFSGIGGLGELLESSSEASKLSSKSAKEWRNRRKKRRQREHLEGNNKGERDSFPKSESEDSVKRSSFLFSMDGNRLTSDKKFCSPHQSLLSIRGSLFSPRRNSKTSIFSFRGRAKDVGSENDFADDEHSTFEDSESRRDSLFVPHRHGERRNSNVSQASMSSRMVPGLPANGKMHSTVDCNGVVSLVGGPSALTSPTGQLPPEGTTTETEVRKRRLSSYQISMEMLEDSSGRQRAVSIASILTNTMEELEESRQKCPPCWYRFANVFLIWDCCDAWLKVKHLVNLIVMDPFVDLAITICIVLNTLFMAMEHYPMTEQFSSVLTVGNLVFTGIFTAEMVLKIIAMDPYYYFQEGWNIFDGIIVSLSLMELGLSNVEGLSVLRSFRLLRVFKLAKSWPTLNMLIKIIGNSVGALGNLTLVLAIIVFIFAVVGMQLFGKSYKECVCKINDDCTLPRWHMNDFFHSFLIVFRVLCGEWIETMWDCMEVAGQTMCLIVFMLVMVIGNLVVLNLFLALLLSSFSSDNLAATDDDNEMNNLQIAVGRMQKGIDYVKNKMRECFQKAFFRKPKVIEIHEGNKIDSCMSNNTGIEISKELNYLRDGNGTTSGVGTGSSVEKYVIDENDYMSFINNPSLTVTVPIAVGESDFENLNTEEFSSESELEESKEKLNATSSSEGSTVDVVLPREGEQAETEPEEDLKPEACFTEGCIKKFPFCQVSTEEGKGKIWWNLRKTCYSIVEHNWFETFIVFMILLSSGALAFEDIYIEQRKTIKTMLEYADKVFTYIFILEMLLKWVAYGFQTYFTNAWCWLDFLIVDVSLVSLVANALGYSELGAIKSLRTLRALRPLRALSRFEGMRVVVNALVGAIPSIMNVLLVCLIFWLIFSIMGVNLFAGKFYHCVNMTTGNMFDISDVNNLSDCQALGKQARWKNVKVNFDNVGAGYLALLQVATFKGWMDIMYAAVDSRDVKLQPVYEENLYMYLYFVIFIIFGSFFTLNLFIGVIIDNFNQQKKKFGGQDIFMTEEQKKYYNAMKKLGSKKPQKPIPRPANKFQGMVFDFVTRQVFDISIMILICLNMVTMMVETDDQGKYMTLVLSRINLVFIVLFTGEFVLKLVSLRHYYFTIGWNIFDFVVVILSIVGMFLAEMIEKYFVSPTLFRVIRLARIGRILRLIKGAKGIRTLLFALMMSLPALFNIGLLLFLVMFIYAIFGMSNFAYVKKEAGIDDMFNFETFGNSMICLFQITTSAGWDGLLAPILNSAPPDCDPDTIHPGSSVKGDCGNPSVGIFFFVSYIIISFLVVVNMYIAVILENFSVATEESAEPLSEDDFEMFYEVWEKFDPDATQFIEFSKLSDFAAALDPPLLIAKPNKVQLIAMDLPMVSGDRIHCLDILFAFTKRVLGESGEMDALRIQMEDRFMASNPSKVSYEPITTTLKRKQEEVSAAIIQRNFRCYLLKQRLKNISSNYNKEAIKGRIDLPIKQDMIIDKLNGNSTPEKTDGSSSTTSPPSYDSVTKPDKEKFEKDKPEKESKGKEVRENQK

As to `NC1=N[C@H](O)[C@H]2[C@H]3O[C@]4(O)O[C@@H]([C@@H](O)[C@@]2(N1)[C@@H]4O)[C@]3(O)CO` [TTX, tetrodotoxin, reference compound], in test [1], the “blocking effect on sodium channels” value is on record as “full blocking effect”.

On to “Ile-Glu-Pro-Tyr-Tyr-Val-NH2 (IEPYYV-NH2) [SEQ ID NO: 5—NH2]”, for which the “ranking of sodium channel inhibition among tested peptides at the lower concentration” value in test [1] (0.005 mg/mL, SHSY-5Y cells) is “performed the best”.

As to “KDRVY-NH2 [SEQ ID NO: 4—NH2, Lys-Asp-Arg-Val-Tyr-NH2]”, the “ranking of sodium channel inhibition among tested peptides at the two higher concentrations” value in test [1] (0.01 and 0.05 mg/mL, SHSY-5Y cells) is “best results”. Besides, the “expression of sodium channels and muscle contraction-related genes (SCN1B, SCN4A, SCN3A, CALM3, RAPSN)” value in test [2] was “downregulate”. In addition, the elastin levels result in test [3] is “increase of elastin levels”. Besides, in test [4] (HDFa, 0.05 mg/mL (highest tested concentration)), the “increase of procollagen I alpha 1 protein release” value came out at 53%. The “procollagen I alpha 1 protein release” value in test [4] (HDFa, 0.01, 0.015 and 0.05 mg/mL, vs untreated cells) is reported as “increased at all tested concentrations, in a dose-dependent manner”. Besides, in test [5] (0.005 mg/mL), the “% Variation with regard to negative control” value (“% Variation with regard” below) is recorded as 7.57** % and the “% HA content” value was 107.57** %. Besides, in test [5] (0.01 mg/mL), the “% Variation with regard” value was 21.75*** % and the “% HA content” value is 121.75*** %. Besides, in test [5] (0.05 mg/mL), the “% Variation with regard” value is given as 39.21*** % and the “% HA content” value is 139.21*** %. In addition, the HYAL1 gene expression entry in test [6] (6 h, 0.005 mg/ml of the peptide) is listed as “downregulation”. In test [6] (6 h, 0.05 mg/ml of the peptide), the HAS1 gene expression entry was “upregulation”. Also, in test [6] (24 h, 0.01 mg/m of the peptide), the COL3A1 gene expression entry is “upregulation”, the COL4A1 gene expression entry is recorded as “upregulation” and the MMP1 gene expression result is on record as “downregulation”. Besides, in test [6] (setting [8]), the COL7A1 gene expression entry is “upregulation”, the FBLN5 gene expression result is recorded as “upregulation”, the LOXL1 gene expression result was “upregulation” and the TIMP2 gene expression entry is “upregulation”.

“Lys-Arg-Arg-Tyr-Tyr-Cys-NH2 (KRRYYC-NH2) [SEQ ID NO: 2—NH2]”: the “inhibition of NaV1.3 inward currents” value in test [7] is “increased and statistically significant effect”.

Turning to “Lys-His-Arg-Ser-Tyr-NH2 (KHRSY-NH2) [SEQ ID NO: 3—NH2]”, the “inhibition of NaV1.3 inward currents” value in test [7] was “increased and statistically significant effect”.
